The source of these data is patent EP0812190B1 (priority 1993, dated 1995).

Data set [1] concerns the target T1, MAO-A (Rattus norvegicus, UniProt P21396).
T1 sequence (P21396 1-526): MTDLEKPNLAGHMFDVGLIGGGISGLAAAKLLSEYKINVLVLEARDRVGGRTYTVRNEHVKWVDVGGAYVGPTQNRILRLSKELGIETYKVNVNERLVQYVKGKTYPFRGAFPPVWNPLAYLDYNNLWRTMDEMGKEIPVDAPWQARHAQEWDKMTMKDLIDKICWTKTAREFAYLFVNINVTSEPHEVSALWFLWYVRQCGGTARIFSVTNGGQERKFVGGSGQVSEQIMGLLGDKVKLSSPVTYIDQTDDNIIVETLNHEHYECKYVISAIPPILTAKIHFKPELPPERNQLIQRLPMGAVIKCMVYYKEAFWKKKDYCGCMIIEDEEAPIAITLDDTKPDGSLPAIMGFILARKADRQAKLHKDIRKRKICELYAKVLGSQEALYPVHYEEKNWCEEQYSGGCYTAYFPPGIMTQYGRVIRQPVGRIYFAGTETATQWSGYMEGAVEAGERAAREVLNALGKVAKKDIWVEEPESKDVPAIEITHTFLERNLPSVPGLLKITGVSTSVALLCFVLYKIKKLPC
Kind of data set: Rat brain MAO inhibition by propargylamines (Table IA), MAO-A. Also noted: MAO activity determined in brain and liver using the general technique described above; from tissue; host or cells: brain and liver of treated rats. The settings on record: ratio between epimers. The format is biochemical.

Data set [2] concerns the target T2, MAO-B (Rattus norvegicus, UniProt P19643).
T2 sequence (P19643 1-520): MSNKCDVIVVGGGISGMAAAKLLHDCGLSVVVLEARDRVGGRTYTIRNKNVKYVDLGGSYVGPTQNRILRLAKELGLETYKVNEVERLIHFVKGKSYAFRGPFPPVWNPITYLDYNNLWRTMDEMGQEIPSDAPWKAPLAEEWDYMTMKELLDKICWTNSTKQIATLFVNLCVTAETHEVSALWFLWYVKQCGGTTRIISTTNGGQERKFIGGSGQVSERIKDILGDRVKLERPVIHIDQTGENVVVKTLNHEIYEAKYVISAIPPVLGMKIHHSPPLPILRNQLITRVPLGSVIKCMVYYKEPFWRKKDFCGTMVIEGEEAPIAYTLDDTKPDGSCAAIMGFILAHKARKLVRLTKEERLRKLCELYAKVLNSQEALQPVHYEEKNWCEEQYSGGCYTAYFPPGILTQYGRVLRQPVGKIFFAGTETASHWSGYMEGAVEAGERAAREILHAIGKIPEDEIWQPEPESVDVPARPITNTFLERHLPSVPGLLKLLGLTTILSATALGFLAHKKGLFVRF
Kind of data set: Rat brain MAO inhibition by propargylamines (Table IA), MAO-B. Also noted: in a rat brain preparation of MAO; from tissue; host or cells: rat brain preparation. The format is biochemical. The settings on record: ratio between epimers, MAO-B.

The test system of data set [3] is maximal electroshock seizures. Put plainly: animal or person. The settings on record: for ED50: Mus musculus, ip. An excerpt: (§1) The MES test is a classical model to indicate efficacy for partial and generalized seizures in humans. […] Some agents, however, that prevent seizure spread have the side effect of lowering seizure threshold. These agents therefore have both proconvulsive and anticonvulsive side effects.

Data set [4] concerns maximal electroshock seizures. The conditions noted are these: rats, p.o., 50 mg/kg.
From the text: as §1

For data set [5], the system named is neurological deficits. The conditions noted are these: mice, 300 mg/kg.
Protocol: TD50 (median toxic dose). This test measures neurological deficits by the rotorod ataxia test. A mouse is placed on a knurled rod rotating at 6 rpm. It is then determined whether a mouse has the ability to maintain its equilibrium and stay on the rod for one minute in each of three trials.
Data set [6] concerns minimal seizure threshold. The settings on record: 141 mg/kg. The procedure: Timed Intravenous Infusion of Metrazol Test. This test measures the minimal seizure threshold of each animal. […] The time is then recorded (sec) from the start of infusion until the appearance of the first twitch (first focal seizure) and onset of clonus (clonic seizure).
Data set [7] has as its system rabbit jejunum. Put plainly: Tyramine potentiation in rabbit jejunum preparation.
In data set [8] the test system is guinea-pig ileum. Kind of data set: tissue or blood. The settings on record: Cavia porcellus, read-out: Percent relaxation.
Data set [9] relates to guinea-pig ileum.
Data set [10] relates to guinea-pig ileum. Put plainly: tissue or blood. The conditions noted are these: Cavia porcellus, read-out: Percent relaxation. The source holds these as a separate data set.
Data set [11] deals with amphetamine-induced stereotype behavior. The conditions noted are these: control senescent rats; 0.5 mg/kg/day in drinking water; lateral head movements over 1 minute, 45 min after amphetamine 0.5 mg/kg s.c. The procedure: The extent of this behavior is rated in accordance with the number of lateral head movements over a period of 1 minute.
Following that, amphetamine was injected s.c. at a dose of 0.5 mg/kg. 45 minutes later, lateral head movements were counted.

The test system of data set [12] is MPTP-induced striatal dopamine depletions. Kind of data set: Suppression of MPTP-induced dopaminergic toxicity (striatal DA and DOPAC). The format is in vivo, mice. The conditions noted are these: striatum. The procedure:
Brains were removed and corpora striata dissected on an ice-cold glass plate and frozen on dry ice. Striatal tissues were homogenized in 0.1 M perchloric acid, and deproteinized aliquots containing dihydroxybenzylamine as an internal standard were assayed for dopamine and its major metabolite 3,4-dihydroxy-phenylacetic acid (DOPAC) using HPLC with electrochemical detection.

Data set [13] deals with minimal seizure threshold. The settings on record: literature (Kupferberg); cited from earlier work.

Where a name gives a salt, the structure may show the parent alone. Read-outs that look alike come from different tables or passages of the source.

A word on the ED50: it is the midpoint of the dose-response relation. Low values mean an effect at a small dose, high ones a need for a large dose.

As to `C#CCNC1CCCc2ccccc21` (racemic) [Example 1-PAT, N-propargyl-1-aminotetralin], the “RELATIVE POTENCY R/S A” value in [1] amounted to 4. The “RELATIVE POTENCY R/S B” value in data set [2] was found to be 0.5.
For the compound `C#CCN[C@@H]1CCc2ccccc21.Cl` [[R](+)PAI HCl, R-(+)-N-Propargyl-1-aminoindan hydrochloride], the median effective dose (ED50) in [3] worked out at 79 mg/kg. Also, the “animals protected from seizures” value in data set [4] was “three out of four”.
The corresponding values for `C#CCN[C@H]1CCc2ccccc21` [[S](-)PAI HCl, S-(-)-N-Propargyl-1-aminoindan hydrochloride, reference compound] are 57 mg/kg and “Four out of four”.
As for `C#CCN[C@H]1CCc2ccccc21` [[S](-)PAI Mesylate, reference compound], in data set [5], the acute neurotoxicity result is “four out of four mice showed neurotoxicity and spasticity”. Besides, in data set [3] (mice, 100 mg/kg), the mice protected entry is “three out of three”. Moreover, the “time to first focal seizure and onset of clonus” value (“time” below) in data set [6] is “reduces the time”.
As to `C#CCN[C@H]1CCc2ccccc21` [[S](-)PAI, S-(-)-N-propargyl-1-aminoindan, reference compound], the Percent relaxation in [7] (PAI HCl enantiomer alone 0.2-4.0 µM) is on record as 0%; in [7] (tyramine 40 µM after 0.2 µM PAI HCl enantiomer) it was 0%; in data set [7] (tyramine 40 µM after 2 µM PAI HCl enantiomer) it was 35%; in data set [7] (tyramine 40 µM after 40 µM PAI HCl enantiomer), 33-50%. Moreover, the inhibition at 2 µM in data set [8] stood at 11%. Also, in data set [8], the inhibition at 30 µM was found to be 33%. In data set [8], the inhibition at 40 µM stood at 36%. For the same compound, in [8], the inhibition at 200 µM was found to be 90%. The inhibition at 400 µM in [8] worked out at 98%. The inhibition at 1000 µM in data set [8] came to 100%. Further, the gram-tension in data set [9] (bethanechol 0.8 µM, 400 µM PAI HCl enantiomer) was 0 gram-tension; in data set [9] (bethanechol 2 µM, 400 µM enantiomer), 0 gram-tension; in [9] (bethanechol 4 µM, 400 µM enantiomer) it was 0 gram-tension; in data set [9] (bethanechol 20 µM, 400 µM enantiomer) it was 1.2 gram-tension; in data set [9] (bethanechol 80 µM, 400 µM enantiomer), 2.6 gram-tension; in [9] (bethanechol 200 µM, 400 µM enantiomer), 2.6 gram-tension. In addition, the inhibition at 60 µM in data set [10] was 60 to 70%. For the same compound, the inhibition at 300 µM in data set [10] was determined as 100%. In addition, in data set [11], the “Stereotype Behavior Rating” value was “totally inactive”. Further, the DOPAC in data set [12] (drug alone (PAI isomers […] i.p., deprenyl 5 mg/kg i.p.)) was 7.5±0.2 ng/mg protein; in data set [12] (pretreatment one hour before MPTP-HCl 30 mg/kg s.c., 5 days later), 7.0±0.6 ng/mg protein. Further, the DA in data set [12] (drug alone (PAI isomers […] i.p., deprenyl 5 mg/kg i.p.), Mean±S.E.M.) worked out at 174.0±4.8 ng/mg protein; in data set [12] (pretreatment one hour before MPTP-HCl 30 mg/kg s.c. (PAI isomers […] i.p., deprenyl 5 mg/kg i.p.), 5 days later) it was 53.4±6.9 ng/mg protein.
As for `NC(=O)N1c2ccccc2C=Cc2ccccc21` [carbamazepine], the “time” value in data set [13] was “do not show this effect”.
In the case of `O=C1NC(=O)C(c2ccccc2)(c2ccccc2)N1` [phenytoin], the “time” value in data set [13] is “do not show this effect”.
Regarding “N-Methyl-N-propargyl-1-aminotetralin [Example 2-MPAI]”, the “RELATIVE POTENCY +/- A” value in [1] was 3. The “RELATIVE POTENCY +/- B” value in [2] worked out at 0.2.
